Reference: patent US20220133846A1, “NOVEL ANTIMICROBIAL COMPOUND AND USES THEREOF” (priority 2019, published 2022)
In brackets after ≈: the same amount, converted by molar mass. Several values for one entry are separate records, joined by “and”; a condition that tells them apart may be missing. Identical values can stand only once. Entries after “also recorded” stand apart in the source; their conditions may differ. Like-named read-outs stand apart in the source and are kept apart here.

How the values were obtained:
S. aureus or MRSA = experiment: Bacteriolytic activity (time-kill, OD600); format: cell-based; conditions: twice the MIC, mid-exponential growth, over 20 hours
S. aureus (ATCC #29213) = format: cell-based
MDR S. aureus (CH-11) = experiment: Frequency of resistance (FoR) in vitro; format: cell-based
A. baumannii (CH-46) = experiment: Frequency of resistance (FoR) in vitro; format: cell-based
S. aureus = experiment: Thermal and chemical (pH) short-term stability, antibacterial activity remaining; format: physicochemical; conditions: 4 to 60° C. for 18 hours, and 37° C. at pH 3.0-9.0
Description: Samples were clarified by centrifugation (16,000×g for 5 min) and soluble fractions were tested for antibacterial activity (against S. aureus) and examined by analytical HPLC.

[1] = Stability in human serum or plasma (MIC after incubation); format: in vitro ADME
Description: Stability studies were also performed in the presence of plasma or serum, or in whole blood.

[2] = Stability in whole blood and plasma (zone of inhibition, diffusion method); format: in vitro ADME, mouse; conditions: for Whole blood ZOI: 400 μg/mL added to mouse whole blood; for Plasma fraction ZOI: plasma from treated whole blood
Description: The antimicrobial activity remaining in blood was measured by the diffusion method and expressed as the zone of inhibition (ZOI), proportional to the amount of activity remaining in blood (Table 11). Zone of inhibition (ZOI) is a zone of bacteria free agar plate after depositing 2 μL of a tested sample. In parallel, CMB001 treated blood was centrifuged to remove blood cells and the level of CMB001 was tested in the supernatant (plasma).

[3] = tested on: S. aureus NRS 384 (USA300-0114); experiment: Murine neutropenic thigh infection model; format: in vivo, mice
[4] = tested on: Staphylococcus haemolyticus strain JCM 2416
[5] = tested on: Enterococcus faecalis strain NBRC 100480
[6] = 1 mg/mL solution, pH 7.0, 10 minutes, centrifugation
[7] = IV 30 mg/kg; for AUC % Back Extrapolation to C0 / AUC % Extrapolation to infinity / tlast: blood; for Mean Concentration in blood: male CD1 mice
in vivo = conditions: male, CD1, mouse, iv, 30 mg/kg; for clearance / MRT / Vd / half-life: blood; for clearance: CL/CL_F; for clearance / MRT / Vd: IV 30 mg/kg; for Vd: Vdss; for half-life: t1/2, IV 30 mg/kg
J774A mouse BALB/c cells = experiment: Toxicity to mammalian cells (cell viability); conditions: up to 1,500 μg/mL, 24 hours
[8] = individual animals 1-3, 30 mg/kg

C=C(NC(=O)[C@@H](NC(=O)[C@H](Cc1c[nH]cn1)NC(=O)[C@@H]1CS[C@@H](C)[C@H]2NC(=O)[C@H](C)NC(=O)[C@H](NC(=O)[C@H](CCC(N)=O)NC(=O)[C@@H](NC(=O)[C@H](Cc3ccccc3)NC(=O)[C@@H]3CS[C@@H](C)[C@@H](NC(=O)[C@@H](NC(=O)[C@@H]4CS[C@@H](C)[C@@H](NC(=O)[C@@H]5CSC[C@@H](NC(=O)[C@H](CCCCN)NC(=O)[C@@H](N)Cc6c[nH]c7ccccc67)C(=O)N[C@@H](CCC(N)=O)C(=O)NC(=C)C(=O)N[C@@H](Cc6ccccc6)C(=O)N5)C(=O)N5CCC[C@H]5C(=O)NCC(=O)N4)C(C)C)C(=O)NCC(=O)N[C@@H](C(C)C)C(=O)N[C@@H](CC(C)C)C(=O)N[C@@H](CCC(N)=O)C(=O)N/C(=C\C)C(=O)N3)[C@@H](C)CC)[C@H](C)SC[C@H](NC2=O)C(=O)N[C@@H](CC(N)=O)C(=O)N1)[C@@H](C)CC)C(=O)N[C@@H](CCCCN)C(=O)O [CMB001, WKAQX1FAX3PGAVX3GVLQX2AFIQX3AX3ANAHIX1K (SEQ ID NO: 1)]
Bacteriolytic activity, change of OD600 (S. aureus or MRSA): marked decrease of OD600 | Frequency of resistance (FoR) (S. aureus (ATCC #29213); 2X MIC): 1.3 × 10^−8 | Frequency of resistance (FoR) (S. aureus (ATCC #29213); 3X MIC): 2.2 × 10^−9 | Frequency of resistance (FoR) (S. aureus (ATCC #29213); 4X MIC): 2.6 × 10^−9 | Frequency of resistance (FoR) (S. aureus (ATCC #29213); 5X MIC): 3.7 × 10^−10 | Frequency of resistance (FoR) (S. aureus (ATCC #29213); 10X MIC): <3.7 × 10^−10 | Frequency of resistance (FoR) (MDR S. aureus (CH-11); 2X MIC): 3.5 × 10^−9 | Frequency of resistance (FoR) (MDR S. aureus (CH-11); 3X MIC): 1.8 × 10^−9 | Frequency of resistance (FoR) (MDR S. aureus (CH-11); 4X MIC): 2.9 × 10^−8 | Frequency of resistance (FoR) (MDR S. aureus (CH-11); 5X MIC): 5.3 × 10^−10 | Frequency of resistance (FoR) (MDR S. aureus (CH-11); 10X MIC): <3.2 × 10^−10 | Frequency of resistance (FoR) (A. baumannii (CH-46); 2X MIC): 1.1 × 10^−7 | Frequency of resistance (FoR) (A. baumannii (CH-46); 3X MIC): 2.9 × 10^−9 | Frequency of resistance (FoR) (A. baumannii (CH-46); 5X MIC): <1 × 10^−11 | Frequency of resistance (FoR) (A. baumannii (CH-46); 10X MIC): <1 × 10^−11 | Antibacterial activity (MIC) and chemical integrity after incubation (S. aureus): retained its full antibacterial activity (MIC) and chemical integrity | Antibacterial activity after incubation in human serum or plasma ([1]; 8-hour incubation at 37° C.): retained full antibacterial activity | Antibacterial activity after incubation in human serum or plasma ([1]; 24-hour incubation): somewhat less active | Whole blood ZOI ([2]; 10 minutes): 10 mm | Whole blood ZOI ([2]; 60 minutes): 9 mm | Whole blood ZOI ([2]; 120 minutes): 8 mm | Whole blood ZOI ([2]; 180 minutes): 8 mm | Whole blood ZOI ([2]; 240 minutes): 8 mm | Adsorption onto blood cells ([2]; mouse blood, 400 μg/mL): not adsorbed onto blood cells | Activity in whole blood ([2]; mouse blood, 400 μg/mL, 0-4 hours): retains full activity in whole blood | Plasma fraction ZOI ([2]; 10 minutes): 11 mm | Plasma fraction ZOI ([2]; 60 minutes): 9 mm | Plasma fraction ZOI ([2]; 120 minutes): 8 mm | Plasma fraction ZOI ([2]; 180 minutes): 8 mm | Plasma fraction ZOI ([2]; 240 minutes): 7 mm | Spiked plasma control ZOI ([2]; plasma spiked with CMB001, 10 minutes): 9 mm | Spiked plasma control ZOI ([2]; plasma spiked with CMB001, 60 minutes): 11 mm | Spiked plasma control ZOI ([2]; plasma spiked with CMB001, 120 minutes): 11 mm | Spiked plasma control ZOI ([2]; plasma spiked with CMB001, 180 minutes): 11 mm | Spiked plasma control ZOI ([2]; plasma spiked with CMB001, 240 minutes): 10 mm | Bacterial burden compared to vehicle control ([3]; 0.5 to 10 mg/kg IV): dose dependent reduction of bacterial burden; also recorded: dose-dependent reduction of S. aureus in the thigh | Thigh burden compared to vehicle-treated group ([3]; 5 to 30 mg/kg IV at 1, 8 and 15 hours post-infection): Significant reduction of thigh burden | Survival to end of study ([3]; 5 to 30 mg/kg IV, 25 h post-infection): Most CMB001-treated animals survived until the end of the study | Thigh burden relative to pre-treatment levels ([3]; all doses, 5 to 30 mg/kg IV): reduced below pre-treatment levels | MIC [4]: 6.25 µg/mL (≈ 1.87 µM) | MIC range (Acinetobacter baumannii): 3.4 to 27.7 µg/mL | MIC90 [5]: 12.5 µg/mL (≈ 3.73 µM) | MIC range [5]: 6.2 to 12.5 µg/mL | Solubility relative to initial concentration [6]: > 96% | Time at detectable levels in blood ([7]; LLOQ 500 ng/mL): at least 60 minutes | AUC % Back Extrapolation to C0 ([7]; Mean/Median): 16% | AUC % Extrapolation to infinity ([7]; Mean/Median): 29% | tlast ([7]; Mean/Median): 1.00 h | tlast ([7]; individual animals 1-3): 1.00 h | AUC % Back Extrapolation to C0 [7, 8]: 23% and 12% and 13% | AUC % Extrapolation to infinity [7, 8]: 26% and 22% and 41% | Mean Concentration in blood ([7]; 2.00 hours, LLOQ 500 ng/mL): BLQ* | Mean Concentration in blood ([7]; 4.00 hours, LLOQ 500 ng/mL): BLQ | Mean Concentration in blood ([7]; 8.00 hours, LLOQ 500 ng/mL): BLQ | Mean Concentration in blood ([7]; 24.00 hours, LLOQ 500 ng/mL): BLQ | clearance (in vivo; Mean/Median): 170 mL/min/kg | clearance (in vivo; individual animals 1-2): 166 mL/min/kg | MRT (in vivo; Mean/Median): 40.2 min | MRT (in vivo; individual animals 1-2): 42.6 min | Vd (in vivo; Mean/Median): 6.8 L/kg | Vd (in vivo; individual animals 1-2): 7 L/kg | half-life (in vivo; Mean/Median): 32.4 ± 9 min | half-life (in vivo; individual animals 1-2): 38.4 min | level at 0.08 h (in vivo; whole blood): 4770 ng/mL | level at 0.25 h (in vivo; whole blood): 2450 ng/mL | level at 0.5 h (in vivo; whole blood): 1280 ng/mL | level at 1 h (in vivo; whole blood): 916 ng/mL | level at time molar at 0.08 h (in vivo; whole blood): 1420 nM | level at time molar at 0.25 h (in vivo; whole blood): 733 nM | level at time molar at 0.5 h (in vivo; whole blood): 383 nM | level at time molar at 1 h (in vivo; whole blood): 274 nM | Cell viability (J774A mouse BALB/c cells): did not reduce cell viability
